The values below come from PubChem BioAssay AID843 (The Scripps Research Institute Molecular Screening Center, 2007).

Calls of active or inactive are those of the source. How the calls were made is not given here.

This experiment relates to CRE-bla reporter cells, beta-lactamase FRET, activation. Kind of experiment: CRE beta-lactamase reporter activation – cell-based, beta-lactamase FRET, counter-screen for S1P2 agonist project, dose response (AID 843).
On to `Clc1ccc(-c2ccc(/C=N/Nc3cc(N4CCOCC4)nc(N4CCOCC4)n3)o2)cc1`, for which the EC50 was 14.5 µM (inactive).

Regarding `N#CCN1CCN(CC(=O)Nc2cccc3ccccc23)CC1`, the EC50 was > 50 µM (inactive).

Regarding `COc1ccc(Cn2c(-c3ccco3)nc3oc4cc(OC)ccc4c(=O)c3c2=O)cc1`, the EC50 was > 50 µM (inactive). The result for `Cc1cc(C)n2cc(CSc3nnnn3-c3ccc(Cl)cc3)nc2n1` reads > 50 µM (inactive); that for `Cc1cc(C(=O)CN2C(=O)CCC2=O)c(C)n1Cc1ccccc1`, > 50 µM (inactive).

As to `CCC(=O)c1cc2c(C)cc(=O)oc2c(C)c1O`, the EC50 was > 50 µM (inactive).

Turning to `COc1cc2c(cc1OC)C1=C(C#N)CCC(=NC(=O)c3ccc(Cl)cc3)N1CC2`, the EC50 was 1.64 µM.

Regarding `Cc1ccc(CNC(=O)CCNC(=O)c2ccco2)cc1`, the EC50 is > 50 µM (inactive). As for `Cc1cccc2cc(C(c3nnnn3CC3CCCO3)N3CCc4ccccc4C3)c(=O)[nH]c12` (configuration not stated), the figure is > 50 µM (inactive).

Regarding `CS(=O)(=O)NCc1nnc(SCC(=O)NC2CCCCC2)n1-c1ccc(F)cc1`, the EC50 was > 50 µM (inactive). Turning to `O=c1c(-c2nc3ccccc3s2)cccn1Cc1ccccc1`, the EC50 was 6.82 µM. Regarding `CC(C)n1c(=N)c(C(=O)NCCc2ccccc2)cc2c(=O)n3ccccc3nc21`, the EC50 is 23.6 µM (inactive). As for `COCCNC(=O)CN1CCN(C(c2ccccc2)c2ccccc2)CC1`, the figure is > 50 µM (inactive). The result for `NC(=O)c1ccc(NC(=O)C2CCCO2)cc1` (configuration not stated) reads > 50 µM (inactive). The result for `CCOCCCNc1nc(=S)[nH]c2cc(OC)c(OC)cc12` reads > 50 µM (inactive); that for `O=C1SC(c2ccccc2)=N/C1=C/c1ccco1`, > 50 µM (inactive); that for `COc1ccc(C(c2c[nH]c3ccccc23)c2c[nH]c3ccccc23)cc1O`, > 50 µM (inactive).

As for `O=C(CCC(=O)N1CCc2ccccc21)Nc1ccccc1`, the EC50 is > 50 µM (inactive). Take `O=C(NCc1ccco1)c1cc2ccc(O)cc2oc1=O`: the EC50 is 12.7 µM (inactive). The result for `c1ccc(OCCSc2nnnn2-c2ccccc2)cc1` reads > 50 µM (inactive); that for `O=c1[nH]c(-c2cccs2)nc2ccccc12`, > 50 µM (inactive); that for `Cc1cc(-c2nnc(SCC(=O)NC3CCCC3)o2)no1`, > 50 µM (inactive). `CC(C)CCNC(=O)c1c(N)n(Cc2ccc3c(c2)OCO3)c2nc3ccccc3nc12`: the EC50 was 6.45 µM. As for `C(=C\c1ccccc1)/CSc1nnc(-c2ccccc2)n1Cc1ccco1`, the EC50 is > 50 µM (inactive). The result for `COc1cc2c(cc1OC)C1=C(C#N)CCC(=O)N1CC2` reads 2.96 µM.

`O=C(Cc1c[nH]c2ccccc12)Nc1nc2ccccc2[nH]1`: the EC50 was > 50 µM (inactive).

`CCOC(=O)c1cc2ccc(OC(=O)c3ccco3)cc2oc1=O`: the concentration giving a half-maximal response (EC50) was 8.74 µM. With `COc1cccc(CNC(=O)CN(c2cc(C)cc(C)c2)S(=O)(=O)c2c(C)noc2C)c1`, the EC50 is > 50 µM (inactive). As for `CCC(C)NC(=O)c1c(N)n(Cc2ccc3c(c2)OCO3)c2nc3ccccc3nc12` (configuration not stated), the figure is 5.7 µM; as for `O=c1c(-c2nc3ccccc3s2)cccn1Cc1ccc(Cl)cc1`, 3.43 µM.

`CCN(CC)c1ccc(NC(=O)Nc2ccccc2C(F)(F)F)cc1`: the EC50 is > 50 µM (inactive).

Consider `Cc1ccc(Cn2cccc(-c3nc4ccccc4s3)c2=O)cc1`, for which the EC50 was 24 µM (inactive). On to `CCOc1cccc(OCCCCn2ccnc2)c1`, for which the EC50 is > 50 µM (inactive). The result for `Oc1cccc(C(=S)N2CCN(Cc3ccccc3)CC2)c1` reads > 50 µM (inactive). As for `O=S(=O)(c1ccc(N2CCC(c3ccc(Cl)cc3)=N2)cc1)N(CCO)CCO`, the figure is 9.11 µM; as for `COc1ccccc1CNC(=O)c1c(N)n(CCCN2CCOCC2)c2nc3ccccc3nc12`, 22.9 µM (inactive); as for `CN(C)CCCNS(=O)(=O)c1ccc(N2CCC(c3ccc(Cl)cc3)=N2)cc1`, 1.03 µM. As for `Nc1c(C(=O)NCCCc2ccccc2)c2nc3ccccc3nc2n1Cc1cccs1`, the figure is 5.9 µM. `CCOC(=O)CN(C(=O)CSc1nnc(COc2ccc(OC)cc2)n1C)c1ccccc1`: the EC50 is > 50 µM (inactive). As for `Cc1cccn2c(=O)c3cc(C(=O)NCCc4ccccc4)c(=N)n(CCCn4ccnc4)c3nc12`, the figure is 10.2 µM (inactive); as for `O=C1CCCC(O)=C1C=NCCc1ccccc1`, > 50 µM (inactive). As for `CCCc1nn(-c2cc(Cl)ccc2OC)c2c1C(=O)CCC2`, the figure is > 50 µM (inactive); as for `COc1ccc2cc(S(=O)(=O)NCCCN3CCOCC3)ccc2c1`, > 50 µM (inactive); as for `C=CCn1c(N)cc(=O)nc1SCC(=O)Nc1ccccc1`, > 50 µM (inactive). The result for `c1ccc(-c2nc3ccccn3c2NCc2ccc3c(c2)OCO3)cc1` reads > 50 µM (inactive); that for `O=c1c(-c2nc3ccccc3s2)cccn1Cc1ccc(Cl)c(Cl)c1`, 3.29 µM; that for `Cc1cc(Br)ccc1OCCCCNCCO`, > 50 µM (inactive). Consider `Clc1ccc2nc(N3CCNCC3)nc(-c3ccccc3)c2c1`, for which the EC50 is 9.98 µM. The result for `Cc1ccc(C2CC(=O)c3cnc(N4CCc5ccccc5C4)nc3C2)cc1` (configuration not stated) reads > 50 µM (inactive). The result for `O=C(Nc1ccccn1)Nc1cccs1` reads > 50 µM (inactive). Turning to `CCC(C)n1c(NC(=O)c2ccccc2)c(C#N)c2nc3ccccc3nc21` (configuration not stated), the half-maximal effective concentration (EC50) was 2.95 µM. The result for `Cc1cccc(C(=O)NC2CC3CCCC(C2)N3C(=O)NC2CCCCC2)c1` (configuration not stated) reads > 50 µM (inactive). The result for `CC(C)CNC(=O)c1c(N)n(Cc2ccc3c(c2)OCO3)c2nc3ccccc3nc12` reads 5.66 µM. Consider `O=S(=O)(Cc1ccc(Cl)cc1)NCC1CCCO1` (configuration not stated), for which the EC50 was > 50 µM (inactive). As for `CCOC(=O)c1cc2ccc(OC)c(OC)c2c(=O)s1`, the figure is > 50 µM (inactive). The result for `Clc1ccc(N2N=C(c3cccs3)CC2c2ccco2)cc1` (configuration not stated) reads 3.35 µM; that for `Cc1ccccc1-n1c(=O)c(C#N)cc2c(=O)n3ccccc3nc21`, 26.3 µM (inactive); that for `Cc1cc(C)c(S(=O)(=O)Nc2ccc(O)cc2)cc1C`, > 50 µM (inactive).

For the molecule `NS(=O)(=O)c1ccc(N2N=C(c3ccc(Br)cc3)CC2c2ccc(F)cc2)cc1` (configuration not stated), the EC50 was 2.69 µM. As for `COC(=O)c1cn[nH]c1NC(=S)Nc1ccccc1C`, the figure is > 50 µM (inactive); as for `CCOC(=O)c1c(C)n(C)c2ccc(OCC(O)Cn3nc(C)cc3C)cc12` (configuration not stated), > 50 µM (inactive); as for `O=C(NCC1(c2ccccc2)CCCC1)C(=O)N1CCOCC1`, > 50 µM (inactive).
